We go through 88 compounds from a melting point compilation (Tetko et al.; mined from patent text by program, amines drawn as free bases though some values may be those of a salt).

Bounds are passed on as bounds.

For the compound `COc1ccc(C(=O)c2ccccc2)c(O)c1Cc1cc(C)cc(-n2nc3ccccc3n2)c1O`, the melting point (in general, the temperature, or range, at which the solid turns liquid) lay within 206 to 209 °C. `OC(CSC(=S)Nc1ccc(Cl)cn1)c1ccccc1` (stereo not drawn): the melting point is 116 °C. With `NS(=O)(=O)CCCSc1ccc2nc(Cl)cn2n1`, the melting point was in the range of 117 to 118 °C. `Cc1nc(-c2cccc(C(=O)N[C@H]3CC[C@H](CCN4CCN(c5nccc6c5OCC6)CC4)CC3)c2)no1` came in with a melting point of 228 °C. For the compound `COc1cccc2c1CCC1C(C)=C(O[Si](C)(C)C)CCC21C` (stereo not drawn), the melting point is 79 °C. In the case of `Cc1cc(S(=O)(=O)Cl)c(C)c(S(=O)(=O)Cl)c1`, the melting point was in the range of 24 to 27 °C.

`COc1cc(COc2ccc(N)nn2)c2ccccc2c1` showed a melting point of 167 to 170 °C.

Take `COc1cccc2c1nc(C(F)F)n2-c1nc(Nc2cncnc2)nc(N2CCOCC2)n1`: the melting point lay within 293 to 295 °C. With `O=C(Nc1cccnc1)N1CCN(c2cc(-c3ccccc3F)ncn2)CC1` the figure was 178 to 179 °C; with `O=C(Cc1ccc([N+](=O)[O-])cc1C(=O)O)Nc1cccc(/C=C/c2nc(C3CCC3)cs2)c1`, 233 to 235 °C; with `NC(=O)C1C=Cc2ccccc2N1C(=O)c1ccc(F)cc1` (stereo not drawn), 149 to 151 °C. `NC(=O)C(CCCCCc1ccc(Cl)cc1)C(=O)O` (stereo not drawn) displayed a melting point of 125 to 126 °C. `ON=C1CCc2c1sc1c2CCCC1`: the melting point was in the range of 174 to 176 °C. As for `COc1cc(C2OCC(C)(C)C2(O)C(C)(C)C)cc(OC)c1Br` (stereo not drawn), the melting point fell in the range of 130 to 131 °C. With `CCc1cccc(CC)c1NC(=O)NC(c1ccccc1)c1ccccc1` the figure was 238 to 240 °C; with `O=C(OCc1cncs1)Oc1ccc([N+](=O)[O-])cc1`, 62 to 64 °C; with `NC1CCCC(NC(=O)c2ccc(-c3[nH]nc4c3C(=O)c3c(NC(=O)NN5CCOCC5)cccc3-4)s2)C1` (stereo not drawn), above 300 °C. `CCN(CC)S(=O)(=O)c1cc(-n2c(=O)cc(C(F)(F)F)n(C)c2=O)c(F)cc1Cl` came in with a melting point of 190 to 191 °C.

Compound `Cc1ccc(S(=O)(=O)Cc2c(C(F)(F)F)nn(C)c2O)cc1` had a melting point of 135 °C. Consider `CCOC(=O)c1ccc(COCc2csc3nc(C(=O)NCc4ccnc(OCC5CCOC5)c4)[nH]c(=O)c23)cc1` (stereo not drawn), for which the melting point stood at 225 °C.

On to `S=C1CNc2ccccc2CN1`, for which the melting point lay within 150 to 153 °C. `CC(C)(C)c1cc(-c2nn(CCO)c3ncccc23)cc(C(C)(C)C)c1O` displayed a melting point of 135 to 137 °C.

For `CC(C)COc1ccc(C(=O)N/C(=C\c2ccc(C(F)(F)F)cc2)C(=O)NCCO)cc1`, the melting point fell in the range of 207 to 210 °C. In turn, `CC(C)(C)OC(=O)N1OC2C=CC1C2` (stereo not drawn) displayed a melting point of 52 to 53 °C. The result for `O=C1C(CCO)Oc2cc(F)ccc2N1Cc1cccc(Cl)c1` (stereo not drawn) reads 79 to 82 °C.

`S=C1NCC(Cn2cncn2)(c2ccc(Cl)cc2Cl)O1` (stereo not drawn) yielded a melting point of 232 to 235 °C. On to `CCc1nc(Cl)c(C(N)=O)n1Cc1ccc2oc(-c3ccccc3NS(=O)(=O)C(F)(F)F)c(Br)c2c1`, for which the melting point was 68 to 70 °C. The compound `CCOc1ccc2[nH]c(=O)n(CCN(C(C)C)C(C)C)c2c1` gave a melting point of 89 °C.

On to `Cc1nc(N)nc(N)c1C12CC3CC(CC(C3)C1)C2`, for which the melting point fell in the range of 254 to 258 °C. As to `COc1ccc(C2=C(C(=O)O)N(Cc3ccc4c(c3)OCO4)S(=O)(=O)c3ccccc32)cc1OC`, the melting point is 267 to 268 °C. In the case of `CN=C(NC)Nc1nc(CSCCNC2=NS(=O)(=O)N=C2NC)cs1`, the melting point lay within 132 to 137 °C.

In the case of `COc1cn(-c2ccc(-n3cc(F)c(F)c3)cc2OCC(F)(F)F)nc(-c2ccnn2-c2ccccc2)c1=O`, the melting point was in the range of 220 to 222 °C. For `O=C1Nc2ccccc2OC1c1ccc(Cl)cc1` (stereo not drawn), the melting point was in the range of 180 to 182 °C. `CCC(Oc1ccc(F)cc1F)C(=O)OC1CC(O)C=C2C=CC(C)C(CCC3CC(O)CC(=O)O3)C21` (mixture of isomers) displayed a melting point of 153 to 155 °C. Take `CC(=C(c1ccccc1)c1ccccc1)P(c1ccccc1)c1ccccc1`: the melting point was in the range of 128 to 130 °C.

Turning to `COCCOc1cc(C(O)C#Cc2ccc(C(=O)O)cc2)cc2c1C(C)(C)CCC2(C)C` (stereo not drawn), the melting point stood at 150 °C. On to `CC(C)(C)OC(=O)CN1CC(c2cccs2)SCC(N)C1=O` (stereo not drawn), for which the melting point was 81 to 82 °C. `CC1(C2CCCC2)Cc2cc(OCCCCCC(=O)O)c(Cl)c(Cl)c2C1=O` (stereo not drawn) registered a melting point of 127 to 129 °C.

With `CCOC(=O)c1cnc2ccc(CC)nc2c1Cl`, the melting point lay within 94 to 96 °C. As to `Cc1ncccc1C(=O)NCC1CCN(C[C@H]2COc3ccc(Cl)cc3O2)CC1`, the melting point was 133 to 136 °C. In turn, `Cc1ccc(-c2cc(=O)c(Br)c(C(=O)O)o2)cc1` gave a melting point of 202 to 204 °C.

As for `Cc1ccc(NC(=O)c2cccc(C(F)(F)F)c2)cc1/C=C/n1cnc2c(Nc3ccc(P(C)(C)=O)cc3)ncnc21`, the melting point was 230 to 234 °C. For the compound `CC(C)(Oc1ccc(NC(=O)Oc2ccc(Cl)cc2)cc1)C(=O)O`, the melting point fell in the range of 179 to 182 °C. The compound `Cc1nc(N2CCC(N(C)C)CC2)c2nc(-c3ccccc3)cc-2[nH]1` had a melting point of 262 to 263 °C. The result for `CCOCc1nc2c(N)nc3ccccc3c2n1NCCCNC(=O)C1CCCC1` reads 75 to 77 °C; that for `Nc1nc(-c2ccc(Cl)cc2)c(CCO)c2ncnn12`, 207 to 208 °C; that for `O=C(Nc1cccc(S(=O)(=O)NCC2CC2)c1)c1cnn2c(C(F)F)cc(-c3ccc(C(F)(F)F)cc3)nc12`, 238 °C. Take `O=C1NC(=O)c2c1c(-c1ccccc1)cc1[nH]c3ccc(OP(=O)(O)O)cc3c21`: the melting point is 285 to 295 °C. With `COC(=O)COc1cccc2c(O)c(C(C)=O)ccc12` the figure was 130 to 135 °C. With `C=C(c1ccc(C)cc1)c1ccc(N2CCCC2)cc1`, the melting point is 134 to 136 °C. Regarding `O=C1C(c2ccccc2)=C(c2ccccc2)C(=O)N1Cc1ccc(F)cc1`, the melting point lay in the range of 124 to 125 °C.

For the compound `CC1(C)C(=O)ON(Cc2ccc(Cl)cc2Cl)C1=O`, the melting point lay in the range of 68 to 69.5 °C.

In turn, `CCOc1c2ccccc2nc2c1c(C)nn2-c1ccccn1` yielded a melting point of 121 to 123 °C. `COc1cc(C(=O)O)ccc1-c1ccncc1` displayed a melting point of 239 to 241 °C. The result for `O=C(O)c1cn([C@@H]2C[C@@H]2F)c2cc(F)ccc2c1=O` reads 302 to 305 °C; that for `N#CC1(c2ccc(OCc3ccc(F)cc3)c(OC3CCCC3)c2)CCC(=NO)CC1` (stereo not drawn), 55 to 57 °C. In turn, `Cc1ccc2c(c1)N(CC(=O)NC(C)(C)C)C(=O)C(Br)CC2c1ccccc1C` (stereo not drawn) displayed a melting point of 219 to 221 °C. The result for `CCCCCc1cc(C(=O)OC)ccc1O` reads 82.5 to 83.5 °C; that for `CCOC(=O)C1=C(C)NC(CSCO)=C(C(=O)OCC)C1c1cccc([N+](=O)[O-])c1` (stereo not drawn), 113 to 114 °C; that for `CCOC(Nc1ccccc1)(OCC)C1(F)C=CN=C(C(=O)c2ccc(Cl)cc2)C1` (stereo not drawn), 96 to 97 °C.

In turn, `CCCNC(=O)CSc1nc(Cl)cc(Nc2cccc(C)c2C)n1` registered a melting point of 146 to 148 °C. `FC(F)(F)c1nnc2ccc(-c3ccccc3)nn12` returned a melting point of 183 to 184 °C. With `CC1(C)CCC(C)(C)c2cc3cc(-c4ccc(C(=O)O)s4)ccc3cc21`, the melting point lay in the range of 254 to 255 °C. Take `CCOC(=O)C1C=Nc2c(c(F)cc3cc(C(=O)N(C)Cc4ccccc4)cnc23)C1=O` (stereo not drawn): the melting point is 201 to 203 °C. The compound `COc1cc(OC)nc(C(C)c2ccccc2NC(=O)OC(C)(C)C)n1` (stereo not drawn) returned a melting point of 119 to 121 °C. For `Oc1ccc(C(=C2CCCCCC2)c2ccc(Br)cc2)cc1F`, the melting point fell in the range of 102 to 104 °C. Regarding `CNC1NC(=O)c2ccccc21` (stereo not drawn), the melting point was found to be 152 °C. With `NC(=O)c1nc(-c2ccc(Cl)cc2Cl)c(-c2ccc(Cl)cc2)s1` the figure was 195 to 198 °C; with `C=CCON=C(CCC)C1=C(O)CC(c2ccc(C(=O)SCC)cc2)CC1=O` (stereo not drawn), 72 to 75 °C. With `CCn1cccc1C(=O)O` the figure was 77 to 78 °C.

Compound `CC(C)Cc1cc(S(=O)(=O)Cl)c(C(C)C)cc1Cl` returned a melting point of 90 to 94 °C. As for `COc1ccc(C=CC(=O)c2cccc(OC)c2OC)cc1Oc1ccccc1`, the melting point lay in the range of 63.3 to 64 °C. With `O=C(O)COc1cc2onc(-c3ccccc3F)c2cc1Cl`, the melting point was in the range of 214 to 215 °C. With `CC[C@H](C)CCCCCOc1ccc(C(=O)Oc2ccc(O)cc2)cc1`, the melting point came out at 75 °C.

`CCN(CC)C(=O)NCCc1cccc(-c2nc(=O)c3ccccc3s2)n1` came in with a melting point of 175 to 176 °C. `COC(=O)c1ccc(Cn2c(C)cn(C3CCc4ccccc4C3)c2=S)cc1` (stereo not drawn) gave a melting point of 140 to 141 °C. For the compound `CCC1CC2C3CCc4cc(OC)ccc4C3CCC2(C)C1=O` (stereo not drawn), the melting point lay within 93 to 94 °C. Compound `CCNC(=O)NS(=O)(=O)c1cc2c(cc1OC)OCCC2CNC(=O)c1cc(Cl)ccc1OC` (stereo not drawn) came in with a melting point of 211 to 213 °C. As to `N#Cc1cc2c3ccccc3n(Cc3ccccc3)c2s1`, the melting point is 130 to 132 °C. Compound `COC1CCN(Cc2ccc(COc3cccc4c3CN(C3CCC(=O)NC3=O)C4=O)cc2)CC1` (stereo not drawn) registered a melting point of 149 to 151 °C. For the compound `COc1ccc(N2C(=O)NC3(CCOCC3)C2=O)cc1`, the melting point was 253 to 254 °C. On to `CC#CCOc1ccc(S(=O)(=O)N(C)C(C(=O)NO)c2ccc(OCCCNC(=O)OCCCC)cc2)cc1` (stereo not drawn), for which the melting point lay within 50 to 55 °C. The compound `O=C(O)c1cccc(-c2ccc3c(c2)C(Oc2ccc(Cl)cc2Cl)CC3)c1` (stereo not drawn) came in with a melting point of 173 to 174 °C. The result for `Cc1ccccc1-c1c(C(=O)N(C)C)ccc2ccccc12` reads 95 to 97 °C; that for `CS(=O)(=O)c1cc(C(=O)N=C(N)N)ccc1Oc1ccc(=O)[nH]n1`, 268 to 270 °C; that for `CC(=O)N1C(C)(C)CC(N2CCCCCC2=O)CC1(C)C`, 104 to 108 °C.

`COC(=O)C=Cc1ccc(F)cc1`: the melting point was in the range of 43 to 46 °C. In turn, `CCOC(=O)c1ccccc1C(=O)c1ccc2c(c1)C(C)(C)C(C)C2(C)C` (stereo not drawn) returned a melting point of 56 to 57 °C.
